According to US9163011B2, “Oxazine derivatives and their use in the treatment of disease” (NOVARTIS AG, priority 2011, dated 2015):

Experiments:
Human BACE-1 = Human BACE-1 (Homo sapiens (Human), UniProt P56817); experiment: Test 1: Inhibition of Human BACE-1; format: biochemical; settings: recombinant BACE-1, pH 4.5, 1 hour preincubation
Method: Test 1: Inhibition of Human BACE-1
(§1) Recombinant BACE-1 (extracellular domain, expressed in baculovirus and purified using standard methods) at 0.1 to 1 nM concentrations is incubated with the test compound at various concentrations for 1 hour at room temperature in 100 mM acetate buffer, pH 4.5, containing 0.1% CHAPS. Activity was measured using a final concentration of 3 μM of the fluorescence-quenched substrate Q-C(HSO3)-Ile-Asp-Leu-Ala-Val-Leu-Asp-HN—CH2—CH2-Mca, where Q=2-nitro-5-amino benzoic acid and Mca=7-methoxy-4-coumarinyl acetic acid. Catalytic turnover was monitored in a Spectramax Gemini fluorescence plate reader (Molecular Devices) in black 96-well microplates using excitation/emission wavelength of 325 nm and 400 nm, respectively. Fluorescence increase was followed for 15 min, in 1 minute's intervals. The fluorescence/time slopes were calculated from duplicate wells and from wells without inhibitor and the IC50 values were calculated using a logistic 4-parameter model.

Human BACE-2 = Human BACE-2 (Homo sapiens (Human), UniProt Q9Y5Z0); experiment: Test 2: Inhibition of Human BACE-2; format: biochemical; settings: recombinant BACE-2, pH 4.5, 1 hour preincubation
Method: Test 2: Inhibition of Human BACE-2
as §1, with “BACE-2” for “BACE-1”

[1] = Test 4: Inhibition of Cellular Release of Amyloid Peptide 1-40; format: cell-based, Chinese hamster; settings: Cricetulus griseus; CHO cells with human APP, 24 hours with compound; read-out: Test 4 Amyloid-β1-40 release IC50
Method: The cells are plated at a density of 8000 cells/well into 96-well microtiter plates and cultivated for 24 hours in DMEM cell culture medium containing 10% FCS. The test compound is added to the cells at various concentrations, and the cells are cultivated for 24 hours in the presence of the test compound. […] The potency of the compound is calculated from the percentage of inhibition of amyloid peptide release as a function of the test compound concentration.

[2] = system: Soluble Abeta40 levels in the rat brain and CSF; experiment: Test 5: In Vivo Inhibitory Activity (Abeta lowering in rat brain and CSF); settings: male Sprague-Dawley rats, oral gavage, 10 micromoles per kilogram, 4 hours prior to sacrifice; n.s.=not statistically significant
Method: Test 5: In Vivo Inhibitory Activity of Example Compounds
Male Sprague-Dawley rats, 220-280 g weight, (Charles River, France) were dosed by oral gavage with vehicle alone (0.1% Tween80, 0.5% methylcellulose in water) or with compound suspended in vehicle at a dose of 10 micromoles compound per kilogram body weight, 4 hours prior to sacrifice. The 4 hour timepoint was selected in order to compare the activity of compounds that have sufficient pharmacokinetic and biodistribution properties to reduce total brain Abeta within approximately three half-lives of the rat brain Abeta40 peptide.
Immediately prior to sacrifice, anaesthetized rat (spontaneous inhalation, 2-5% Isoflurane and air) were fixed in a stereotaxic apparatus on a raised platform, with anesthesia maintained though a nose cone. The angle of the head was tilted downward, perpendicular to the body, and a hypodermic needle lowered through the skin behind the occipital ridge, into the Cisterna magna. Cerebrospinal fluid (CSF) was withdrawn (˜50-100 μL), dispensed into tubes (protein Lo-bind Eppendorf tubes for Abeta40 analysis, normal Eppendorph tubes for compound analysis), frozen on dry ice and stored at −80° C. until analysis. Rats were then immediately decapitated under anesthesia, trunk blood collected for analysis of compound levels and the brain retrieved. One half-forebrain was dissected by removing the cerebellum and olfactory bulbs, frozen in three pieces on a metal plate pre-cooled on frozen CO2 and stored in tubes at −80° C. until analysis for Abeta40. For the other half-brain, olfactory bulbs were discarded and a sagittal slice taken from the medial aspect, weighing ˜200-400 mg, placed in glass HPLC tubes and frozen on dry ice until analysis for compound levels.
Soluble Abeta40 levels in the rat brain and CSF were quantified using a Meso Scale Discovery (MSD) 96-well MULTI-ARRAY human/rodent (4G8) Abeta40 Ultrasensitive Assay (#K110FTE-3, Meso Scale Discovery, Gaithersburg, USA). Forebrain sample homogenates were prepared by sonication in 9 volumes (w/v) of ice cold TBA. Fifty μL of 2% TX-100 in TBS-complete was added to 50 μL aliquots of the homogenate to reach a final concentration of 1% TX-100 in a 1:20 dilution. Samples were incubated on ice for 15 min interrupted with 3 short vortexing steps, then centrifuged (100 000×g, 4° C., 15 min), and 50 μL of supernatant collected. This was further diluted 1:5 with 3% Blocker A solution from the MSD kit to a final dilution of 1:100 and applied to the MSD plate. CSF samples containing blood were excluded. All other CSF samples were diluted with 1% Blocker A solution (from manufacturers kit) to reach a 1:20 CSF dilution. Calibration curves were prepared in 1% Blocker A solution spiked with synthetic Abeta1-40 peptide. Samples and calibration standards were applied in duplicate at a volume of 25 μL per well. Abeta40 concentrations of samples were estimated from the standard curve using SOFTmax PRO4.0.

Sequence of Human BACE-1 (P56817 46-457): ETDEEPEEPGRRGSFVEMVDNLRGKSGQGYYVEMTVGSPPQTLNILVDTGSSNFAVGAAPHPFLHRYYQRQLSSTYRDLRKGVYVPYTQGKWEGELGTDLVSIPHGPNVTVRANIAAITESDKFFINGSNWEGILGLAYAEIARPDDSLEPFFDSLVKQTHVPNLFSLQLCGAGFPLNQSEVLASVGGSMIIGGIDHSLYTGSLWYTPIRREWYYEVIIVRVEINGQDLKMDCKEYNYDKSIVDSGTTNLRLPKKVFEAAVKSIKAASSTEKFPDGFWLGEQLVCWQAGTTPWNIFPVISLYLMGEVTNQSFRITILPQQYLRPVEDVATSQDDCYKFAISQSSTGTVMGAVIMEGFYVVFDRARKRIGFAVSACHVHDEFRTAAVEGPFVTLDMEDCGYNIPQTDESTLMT
Sequence of Human BACE-2 (Q9Y5Z0 63-473): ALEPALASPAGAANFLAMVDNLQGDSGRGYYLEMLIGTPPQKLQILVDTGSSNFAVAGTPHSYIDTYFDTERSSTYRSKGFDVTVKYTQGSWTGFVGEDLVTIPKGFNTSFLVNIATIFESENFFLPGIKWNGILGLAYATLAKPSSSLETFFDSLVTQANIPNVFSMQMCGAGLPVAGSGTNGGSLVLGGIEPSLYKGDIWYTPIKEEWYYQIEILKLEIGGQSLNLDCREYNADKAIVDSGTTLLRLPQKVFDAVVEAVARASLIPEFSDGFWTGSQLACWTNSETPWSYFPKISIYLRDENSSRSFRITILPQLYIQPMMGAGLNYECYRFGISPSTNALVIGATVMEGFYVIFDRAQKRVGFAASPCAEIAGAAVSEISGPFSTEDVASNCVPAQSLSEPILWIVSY

Row | Compound | IC50 (Human BACE-1) [µM] | IC50 (Human BACE-2) [µM] | IC50 [1] [µM] | Abeta lowering in rat CSF [2] | Abeta lowering in rat forebrain [2]
1 | C[C@]1(c2nc(NC(=O)c3ncc(C#CCO)cc3N)ccc2F)N=C(N)OCC1(F)F [Example 17, 3-Amino-5-(3-hydroxy-prop-1-ynyl)-pyridine-2-carboxylic acid [6-((R)-2-amino-5,5-difluoro-4-methyl-5,6-dihydro-4H-[1,3]oxazin-4-yl)-5-fluoro-pyridin-2-yl]-amide] | 0.24 | 8.2 | 0.062 |  | 
2 | CC1(C)OC(N)=NC(C)(c2cc(NC(=O)c3ncc(C#N)cc3Cl)ccc2F)C1(F)F (stereo not shown) [22 WO 2011/069934 A1, reference compound] |  |  |  | −17.9% | −7.8% (n.s.)
3 | CC1(c2cc(NC(=O)c3nn(C(F)F)cc3Cl)ccc2F)N=C(N)OCC1(F)F (stereo not shown) [71 WO 2011/069934 A1, reference compound] |  |  |  | −30.4% | 5.6% (n.s.)
4 | C[C@]1(c2nc(NC(=O)c3ncc(C(F)(F)F)nc3N)ccc2F)N=C(N)OCC1(F)F [Example 8, 3-Amino-5-trifluoromethyl-pyrazine-2-carboxylic acid [6-((R)-2-amino-5,5-difluoro-4-methyl-5,6-dihydro-4H-[1,3]oxazin-4-yl)-5-fluoro-pyridin-2-yl]-amide] | 0.16 | 1.4 | 0.14 |  | 
5 | C[C@]1(c2nc(NC(=O)c3ccc(C#N)cn3)ccc2F)N=C(N)OCC1(F)F [Example 35, 5-Cyano-pyridine-2-carboxylic acid [6-((R)-2-amino-5,5-difluoro-4-methyl-5,6-dihydro-4H-[1,3]oxazin-4-yl)-5-fluoro-pyridin-2-yl]-amide] | 0.054 | 0.26 | 0.014 |  | 
6 | C[C@]1(c2nc(NC(=O)c3ncc(OCCF)nc3N)ccc2F)N=C(N)OCC1(F)F [Example 25, 3-Amino-5-(2-fluoro-ethoxy)-pyrazine-2-carboxylic acid [6-((R)-2-amino-5,5-difluoro-4-methyl-5,6-dihydro-4H-[1,3]oxazin-4-yl)-5-fluoro-pyridin-2-yl]-amide] | 0.57 | > 10 | 0.48 |  | 
7 | C[C@]1(c2nc(NC(=O)c3ncc(C(F)(F)F)cc3Cl)ccc2F)N=C(N)OCC1(F)F [Example 7, 3-Chloro-5-trifluoromethyl-pyridine-2-carboxylic acid [6-((R)-2-amino-5,5-difluoro-4-methyl-5,6-dihydro-4H-[1,3]oxazin-4-yl)-5-fluoro-pyridin-2-yl]-amide] |  |  |  | −67.9% | −63.6%
8 | C[C@]1(c2nc(NC(=O)c3ncc(OCF)nc3N)ccc2F)N=C(N)OCC1(F)F [Example 15, 3-Amino-5-fluoromethoxy-pyrazine-2-carboxylic acid [6-((R)-2-amino-5,5-difluoro-4-methyl-5,6-dihydro-4H-[1,3]oxazin-4-yl)-5-fluoro-pyridin-2-yl]-amide] | 0.11 | 0.73 | 0.03 |  | 
9 | C[C@]1(c2nc(NC(=O)c3ncc(OCF)cc3Cl)ccc2F)N=C(N)OCC1(F)F [Example 26, 3-Chloro-5-fluoromethoxy-pyridine-2-carboxylic acid [6-((R)-2-amino-5,5-difluoro-4-methyl-5,6-dihydro-4H-[1,3]oxazin-4-yl)-5-fluoro-pyridin-2-yl]-amide] | 0.11 | 0.027 | 0.057 |  | 
10 | CC1(c2cc(NC(=O)c3ncc(C#N)cc3Cl)ccc2F)N=C(N)OCC1(F)F (stereo not shown) [39 WO 2011/069934 A1, reference compound] |  |  |  | −8.2% (n.s.) | −1.4% (n.s.)
11 | CC(F)(F)c1cnc(C(=O)Nc2ccc(F)c([C@@]3(C)N=C(N)OCC3(F)F)n2)c(N)n1 [Example 37, 3-Amino-5-(1,1-difluoro-ethyl)-pyrazine-2-carboxylic acid [6-((R)-2-amino-5,5-difluoro-4-methyl-5,6-dihydro-4H-[1,3]oxazin-4-yl)-5-fluoro-pyridin-2-yl]-amide] | 0.064 | > 10 | 0.31 |  | 
12 | C[C@]1(c2nc(NC(=O)c3ncc(OCCCF)nc3N)ccc2F)N=C(N)OCC1(F)F [Example 12, 3-Amino-5-(3-fluoro-propoxy)-pyrazine-2-carboxylic acid [6-((R)-2-amino-5,5-difluoro-4-methyl-5,6-dihydro-4H-[1,3]oxazin-4-yl)-5-fluoro-pyridin-2-yl]-amide] | 1.2 | > 10 | 0.31 |  | 
13 | CC1(C)OC(N)=N[C@](C)(c2nc(NC(=O)c3ncc(C#N)cc3Cl)ccc2F)C1(F)F [Example 3, 3-Chloro-5-cyano-pyridine-2-carboxylic acid [6-((R)-2-amino-5,5-difluoro-4,6,6-trimethyl-5,6-dihydro-4H-[1,3]oxazin-4-yl)-5-fluoro-pyridin-2-yl]-amide] |  |  |  | −35.3% | −20.0%
14 | CC(F)(F)c1nc(N)c(C(=O)Nc2ccc(F)c([C@@]3(C)N=C(N)OCC3(F)F)n2)nc1Cl [Example 34, 3-Amino-6-chloro-5-(1,1-difluoro-ethyl)-pyrazine-2-carboxylic acid [6-((R)-2-amino-5,5-difluoro-4-methyl-5,6-dihydro-4H-[1,3]oxazin-4-yl)-5-fluoro-pyridin-2-yl]-amide] | > 10 | > 10 | 6.5 |  | 
15 | C[C@]1(c2nc(NC(=O)c3ncc(OCC(F)(F)F)nc3N)ccc2F)N=C(N)OCC1(F)F [Example 10, 3-Amino-5-(2,2,2-trifluoro-ethoxy)pyrazine-2-carboxylic acid [6-((R)-2-amino-5,5-difluoro-4-methyl-5,6-dihydro-4H-[1,3]oxazin-4-yl)-5-fluoro-pyridin-2-yl]-amide] | 0.59 | 3.8 | 0.6 |  | 
16 | C[C@]1(c2nc(NC(=O)c3ncc(OCC(F)F)nc3N)ccc2F)N=C(N)OCC1(F)F [Example 11, 3-Amino-5-(2,2-difluoro-ethoxy)-pyrazine-2-carboxylic acid [6-((R)-2-amino-5,5-difluoro-4-methyl-5,6-dihydro-4H-[1,3]oxazin-4-yl)-5-fluoro-pyridin-2-yl]-amide] | 0.83 | 2.9 | 0.44 |  | 
